Assay: xn = mol fraction of the nth substance listed
Conditions: 100 kPa, Liquid; for viscosity: Falling or rolling sphere viscometry; for speed of sound: Frequency=3 MHz, Single path-length method; for mass density: Vibrating tube method

C[S+](C)[O-] [dimethyl sulfoxide] + CC#N
Conditions	mass density [kg/m3]	speed of sound [m/s]	viscosity [mPa·s]
298.15 K, x1 = 0.0995	820.43	1299.5	0.42
298.15 K, x1 = 0.2061	862.88	1322.6	0.52
298.15 K, x1 = 0.2936	896.29	1346.2	0.57
298.15 K, x1 = 0.4055	935.15	1372	0.72
298.15 K, x1 = 0.5051	966.82	1395.1	0.86
298.15 K, x1 = 0.6001	994.77	1415.8	1.06
298.15 K, x1 = 0.7006	1022.53	1439.2	1.27
298.15 K, x1 = 0.8072	1050.32	1460.8	1.54
298.15 K, x1 = 0.8947	1071.95	1480.9	1.76
298.15 K, x1 = 1	1095.62	1490.5	2.03
303.15 K, x1 = 0.0995	815.06	1280.1	0.4
303.15 K, x1 = 0.2061	857.6	1303.8	0.49
303.15 K, x1 = 0.2936	891.05	1327.8	0.53
303.15 K, x1 = 0.4055	929.99	1354.1	0.67
303.15 K, x1 = 0.5051	961.71	1377.5	0.81
303.15 K, x1 = 0.6001	989.72	1398.5	0.97
303.15 K, x1 = 0.7006	1017.55	1422.2	1.17
303.15 K, x1 = 0.8072	1045.34	1443.9	1.42
303.15 K, x1 = 0.8947	1066.98	1464	1.6
303.15 K, x1 = 1	1090.62	1473.6	1.84
308.15 K, x1 = 0.0995	809.67	1260.6	0.39
308.15 K, x1 = 0.2061	852.28	1285	0.46
308.15 K, x1 = 0.2936	885.81	1309.9	0.52
308.15 K, x1 = 0.4055	924.82	1336.2	0.64
308.15 K, x1 = 0.5051	956.58	1360	0.75
308.15 K, x1 = 0.6001	984.67	1381.3	0.91
308.15 K, x1 = 0.7006	1012.57	1405.2	1.08
308.15 K, x1 = 0.8072	1040.36	1427	1.29
308.15 K, x1 = 0.8947	1062.01	1447.2	1.47
308.15 K, x1 = 1	1085.61	1456.8	1.67
313.15 K, x1 = 0.0995	804.26	1241.2	0.37
313.15 K, x1 = 0.2061	846.95	1266.1	0.44
313.15 K, x1 = 0.2936	880.52	1291	0.49
313.15 K, x1 = 0.4055	919.62	1318.8	0.6
313.15 K, x1 = 0.5051	951.43	1342.5	0.71
313.15 K, x1 = 0.6001	979.59	1364.1	0.85
313.15 K, x1 = 0.7006	1007.58	1388	1
313.15 K, x1 = 0.8072	1035.36	1410.3	1.19
313.15 K, x1 = 0.8947	1057.03	1431	1.35
313.15 K, x1 = 1	1080.6	1440	1.53
318.15 K, x1 = 0.0995	798.81	1221.8	0.35
318.15 K, x1 = 0.2061	841.59	1247.4	0.42
318.15 K, x1 = 0.2936	875.23	1272.7	0.47
318.15 K, x1 = 0.4055	914.41	1300.5	0.57
318.15 K, x1 = 0.5051	946.27	1325	0.67
318.15 K, x1 = 0.6001	974.52	1346.9	0.79
318.15 K, x1 = 0.7006	1002.73	1371.2	0.94
318.15 K, x1 = 0.8072	1030.38	1393.5	1.1
318.15 K, x1 = 0.8947	1052.04	1413.8	1.24
318.15 K, x1 = 1	1075.6	1423.3	1.41
323.15 K, x1 = 0.0995	793.34	1202.4	0.34
323.15 K, x1 = 0.2061	836.19	1228.6	0.4
323.15 K, x1 = 0.2936	869.91	1254.3	0.45
323.15 K, x1 = 0.4055	909.18	1282.7	0.54
323.15 K, x1 = 0.5051	941.1	1307.6	0.63
323.15 K, x1 = 0.6001	969.42	1329.7	0.75
323.15 K, x1 = 0.7006	997.71	1354.2	0.87
323.15 K, x1 = 0.8072	1025.37	1376.8	1.03
323.15 K, x1 = 0.8947	1047.05	1397.2	1.15
323.15 K, x1 = 1	1070.66	1406.7	1.3

CCn1cc[n+](C)c1.O=S(=O)([O-])C(F)(F)F [1-ethyl-3-methylimidazolium trifluoromethanesulfonate] + C[S+](C)[O-]
Conditions	mass density [kg/m3]	speed of sound [m/s]	viscosity [mPa·s]
298.15 K, x1 = 0.1068	1168.75	1488	3.65
298.15 K, x1 = 0.2015	1216.25	1477.1	5.35
298.15 K, x1 = 0.3077	1256.63	1468.6	7.89
298.15 K, x1 = 0.4023	1284.76	1462.5	11.82
298.15 K, x1 = 0.4933	1306.53	1456.5	16.26
298.15 K, x1 = 0.6022	1328.03	1453	21.05
298.15 K, x1 = 0.6993	1344	1449.9	26.12
298.15 K, x1 = 0.7929	1357.15	1445.6	31.96
298.15 K, x1 = 0.9008	1370.28	1441.2	38.88
298.15 K, x1 = 1	1379.91	1436	45.67
303.15 K, x1 = 0.1068	1164	1472.7	3.26
303.15 K, x1 = 0.2015	1211.78	1462.7	4.72
303.15 K, x1 = 0.3077	1252.35	1454.9	6.9
303.15 K, x1 = 0.4023	1280.52	1449.4	10.2
303.15 K, x1 = 0.4933	1302.34	1443.8	13.93
303.15 K, x1 = 0.6022	1323.93	1440.6	17.95
303.15 K, x1 = 0.6993	1339.92	1437.8	22.18
303.15 K, x1 = 0.7929	1353.08	1433.9	27.03
303.15 K, x1 = 0.9008	1366.19	1430	32.74
303.15 K, x1 = 1	1375.71	1425.4	38.31
308.15 K, x1 = 0.1068	1159.28	1457.5	2.94
308.15 K, x1 = 0.2015	1207.5	1448.3	4.2
308.15 K, x1 = 0.3077	1248.17	1441.2	6.08
308.15 K, x1 = 0.4023	1276.4	1436.4	8.91
308.15 K, x1 = 0.4933	1298.26	1431.3	12.06
308.15 K, x1 = 0.6022	1319.96	1428.4	15.48
308.15 K, x1 = 0.6993	1335.83	1425.8	19.05
308.15 K, x1 = 0.7929	1349.06	1422.3	23.08
308.15 K, x1 = 0.9008	1362.09	1418.7	27.81
308.15 K, x1 = 1	1371.51	1414.3	32.38
313.15 K, x1 = 0.1068	1154.49	1442.4	2.66
313.15 K, x1 = 0.2015	1203.23	1434	3.76
313.15 K, x1 = 0.3077	1243.91	1427.7	5.42
313.15 K, x1 = 0.4023	1272.21	1423.5	7.85
313.15 K, x1 = 0.4933	1294.19	1418.8	10.52
313.15 K, x1 = 0.6022	1315.98	1416.5	13.47
313.15 K, x1 = 0.6993	1331.89	1414	16.52
313.15 K, x1 = 0.7929	1345.04	1410.8	19.91
313.15 K, x1 = 0.9008	1358.06	1407.4	23.88
313.15 K, x1 = 1	1367.36	1403	27.68
318.15 K, x1 = 0.1068	1149.74	1425.5	2.42
318.15 K, x1 = 0.2015	1198.95	1419.8	3.39
318.15 K, x1 = 0.3077	1239.74	1414.3	4.85
318.15 K, x1 = 0.4023	1268.06	1410.8	6.96
318.15 K, x1 = 0.4933	1290.23	1406.5	9.26
318.15 K, x1 = 0.6022	1312.02	1404.5	11.82
318.15 K, x1 = 0.6993	1327.93	1401.9	14.45
318.15 K, x1 = 0.7929	1341	1399.5	17.32
318.15 K, x1 = 0.9008	1353.95	1396.5	20.68
318.15 K, x1 = 1	1363.21	1392.7	23.86
323.15 K, x1 = 0.1068	1144.99	1410.4	2.22
323.15 K, x1 = 0.2015	1194.68	1405.7	3.08
323.15 K, x1 = 0.3077	1235.66	1401	4.37
323.15 K, x1 = 0.4023	1263.96	1398.1	6.22
323.15 K, x1 = 0.4933	1286.19	1394.3	8.23
323.15 K, x1 = 0.6022	1307.97	1392.7	10.45
323.15 K, x1 = 0.6993	1323.95	1390.7	12.72
323.15 K, x1 = 0.7929	1337.02	1388.2	15.19
323.15 K, x1 = 0.9008	1349.9	1385.5	18.05
323.15 K, x1 = 1	1359.07	1381.7	20.75
